This passage reports IC50 results from patent US11691992B2 (Anacor Pharmaceuticals, Inc., priority 2017, dated 2023).

In the experiment the test system is luciferase-expressing L. major parasites developing intracellularly inside RAW 264.7 macrophages. Nature of the experiment: Leishmania major intracellular amastigote assay in RAW 264.7 macrophages (luciferase). The experiment is classed as cell-based. The note with it: RAW264.7, 96 hours, read-out: IC50: I Org. intracellular amastigote Growth L. major, 4 d. Summed up:
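RAW 264.7 macrophages infected overnight with luciferase-expressing L. major promastigotes, washed of extracellular parasites, then exposed to two-fold compound dilutions (final 0.5-10,000 ng/ml) for 96 h at 37° C, 5% CO2. Luciferin luminescence after 30 min; IC50 by sigmoidal variable-slope regression.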
Consider `CC1OB(O)c2cc(NC(=O)c3cn(-c4ccccc4)nn3)ccc21` (centres unmarked) [Example 2], for which the IC50 (usually the concentration needed to halve the response being measured) was at most 1 µM.
In the case of `O=C(Nc1ccc2c(c1)B(O)OC21CCC1)c1cn(-c2ccccc2)nn1` [Example 3, N-(1-hydroxy-1H-spiro[benzo[c][1,2]oxaborole-3,1′-cyclobutan]-6-yl)-1-phenyl-1H-1,2,3-triazole-4-carboxamide] it was at most 1 µM; in that of `Cc1c(C(=O)Nc2ccc3c(c2)B(O)OC32CCC2)nnn1-c1ccccc1` [Example 4, N-(1-hydroxy-1H-spiro[benzo[c][1,2]oxaborole-3,1′-cyclobutan]-6-yl)-5-methyl-1-phenyl-1H-1,2,3-triazole-4-carboxamide], at most 1 µM; in that of `CC1OB(O)c2cc(NC(=O)c3cn(-c4ccc(F)cc4)nn3)ccc21` (centres unmarked) [Example 5], at most 1 µM.
In the case of `Cc1c(C(=O)Nc2ccc3c(c2)B(O)OC3C)nnn1-c1ccc(F)cc1` (centres unmarked) [Example 6, 1-(4-fluorophenyl)-N-(1-hydroxy-3-methyl-1,3-dihydrobenzo[c][1,2]oxaborol-6-yl)-5-methyl-1H-1,2,3-triazole-4-carboxamide] it was at most 1 µM; in that of `O=C(Nc1ccc2c(c1)B(O)OC21CCC1)c1cn(-c2ccc(F)cc2)nn1` [Example 7, 1-(4-fluorophenyl)-N-(1-hydroxy-1H-spiro[benzo[c][1,2]oxaborole-3,1′-cyclobutan]-6-yl)-1H-1,2,3-triazole-4-carboxamide], 1.1 to 9.9 µM; in that of `O=C(Nc1ccc2c(c1)B(O)OC21CCC1)c1cn(-c2cccnc2)nn1` [Example 8, N-(1-hydroxy-1H-spiro[benzo[c][1,2]oxaborole-3,1′-cyclobutan]-6-yl)-1-(pyridin-3-yl)-1H-1,2,3-triazole-4-carboxamide], 10 to 50 µM.
Take `Cc1c(C(=O)Nc2ccc3c(c2)B(O)OC32CCC2)nnn1-c1ccc(F)cc1` [Example 9, 1-(4-fluorophenyl)-N-(1-hydroxy-1H-spiro[benzo[c][1,2]oxaborole-3,1′-cyclobutan]-6-yl)-5-methyl-1H-1,2,3-triazole-4-carboxamide]: the IC50 lay within 10 to 50 µM.
In the case of `Cc1ccc(-n2cc(C(=O)Nc3ccc4c(c3)B(O)OC4)nn2)cc1` [Example 10, N-(1-hydroxy-1,3-dihydrobenzo[c][1,2]oxaborol-6-yl)-1-(p-tolyl)-1H-1,2,3-triazole-4-carboxamide] it was at most 1 µM.
On to `Cc1ccc(-n2nnc(C(=O)Nc3ccc4c(c3)B(O)OC4)c2C)cc1` [Example 11, N-(1-hydroxy-1,3-dihydrobenzo[c][1,2]oxaborol-6-yl)-5-methyl-1-(p-tolyl)-1H-1,2,3-triazole-4-carboxamide], for which the half-maximal inhibitory concentration (IC50) was in the range of 1.1 to 9.9 µM.
In the case of `CC1OB(O)c2cc(NC(=O)c3cn(-c4cccnc4)nn3)ccc21` (centres unmarked) [Example 12, N-(1-hydroxy-3-methyl-1,3-dihydrobenzo[c][1,2]oxaborol-6-yl)-1-(pyridin-3-yl)-1H-1,2,3-triazole-4-carboxamide] it was 1.1 to 9.9 µM; in that of `Cc1ccc(-n2nnc(C(=O)Nc3ccc4c(c3)B(O)OC4C)c2C)cc1` (centres unmarked) [Example 13, N-(1-hydroxy-3-methyl-1,3-dihydrobenzo[c][1,2]oxaborol-6-yl)-5-methyl-1-(p-tolyl)-1H-1,2,3-triazole-4-carboxamide], 1.1 to 9.9 µM; in that of `Cc1c(C(=O)Nc2ccc3c(c2)B(O)OC3C)nnn1-c1cccnc1` (centres unmarked) [Example 14], 1.1 to 9.9 µM.
In the case of `Cc1ccc(-n2cc(C(=O)Nc3ccc4c(c3)B(O)OC43CCC3)nn2)cc1` [Example 15] it was 10 to 50 µM; in that of `Cc1ccc(-n2nnc(C(=O)Nc3ccc4c(c3)B(O)OC43CCC3)c2C)cc1` [Example 16, N-(1-hydroxy-1H-spiro[benzo[c][1,2]oxaborole-3,1′-cyclobutan]-6-yl)-5-methyl-1-(p-tolyl)-1H-1,2,3-triazole-4-carboxamide], 10 to 50 µM; in that of `Cc1c(C(=O)Nc2ccc3c(c2)B(O)OC32CCC2)nnn1-c1cccnc1` [Example 17, N-(1-hydroxy-1H-spiro[benzo[c][1,2]oxaborole-3,1′-cyclobutan]-6-yl)-5-methyl-1-(pyridin-3-yl)-1H-1,2,3-triazole-4-carboxamide], 10 to 50 µM.
With `Cc1ccc(-n2cc(C(=O)Nc3ccc4c(c3)B(O)OC4C)nn2)cc1` (centres unmarked) [Example 18, N-(1-hydroxy-3-methyl-1,3-dihydrobenzo[c][1,2]oxaborol-6-yl)-1-(p-tolyl)-1H-1,2,3-triazole-4-carboxamide], the IC50 was at most 1 µM.
`COc1ccc(-n2nnc(C(=O)Nc3ccc4c(c3)B(O)OC4C)c2C)cc1` (centres unmarked) [Example 19, N-(1-hydroxy-3-methyl-1,3-dihydrobenzo[c][1,2]oxaborol-6-yl)-1-(4-methoxyphenyl)-5-methyl-1H-1,2,3-triazole-4-carboxamide]: the IC50 was at most 1 µM.
In the case of `COc1ccc(-n2nnc(C(=O)Nc3ccc4c(c3)B(O)OC43CCC3)c2C)cc1` [Example 20, N-(1-hydroxy-1H-spiro[benzo[c][1,2]oxaborole-3,1′-cyclobutan]-6-yl)-1-(4-methoxyphenyl)-5-methyl-1H-1,2,3-triazole-4-carboxamide] it was 10 to 50 µM; in that of `COc1ccc(-n2cc(C(=O)Nc3ccc4c(c3)B(O)OC4)nn2)cc1` [Example 21, N-(1-hydroxy-1,3-dihydrobenzo[c][1,2]oxaborol-6-yl)-1-(4-methoxyphenyl)-1H-1,2,3-triazole-4-carboxamide], at most 1 µM.
In the case of `COc1ccc(-n2cc(C(=O)Nc3ccc4c(c3)B(O)OC4C)nn2)cc1` (centres unmarked) [Example 22, N-(1-hydroxy-3-methyl-1,3-dihydrobenzo[c][1,2]oxaborol-6-yl)-1-(4-methoxyphenyl)-1H-1,2,3-triazole-4-carboxamide] it was at most 1 µM; in that of `CC1OB(O)c2cc(NC(=O)c3cn(-c4ccccn4)nn3)ccc21` (centres unmarked) [Example 23, N-(1-hydroxy-3-methyl-1,3-dihydrobenzo[c][1,2]oxaborol-6-yl)-1-(pyridin-2-yl)-1H-1,2,3-triazole-4-carboxamide], at most 1 µM.
In the case of `Cc1c(C(=O)Nc2ccc3c(c2)B(O)OC3C)nnn1-c1ccccn1` (centres unmarked) [Example 24, N-(1-hydroxy-3-methyl-1,3-dihydrobenzo[c][1,2]oxaborol-6-yl)-5-methyl-1-(pyridin-2-yl)-1H-1,2,3-triazole-4-carboxamide] it was at most 1 µM; in that of `COc1ccc(-n2cc(C(=O)Nc3ccc4c(c3)B(O)OC43CCC3)nn2)cc1` [Example 25, N-(1-hydroxy-1H-spiro[benzo[c][1,2]oxaborole-3,1′-cyclobutan]-6-yl)-1-(4-methoxyphenyl)-1H-1,2,3-triazole-4-carboxamide], 10 to 50 µM.
Regarding `O=C(Nc1ccc2c(c1)B(O)OC21CCC1)c1cn(-c2ccccn2)nn1` [Example 26, N-(1-hydroxy-1H-spiro[benzo[c][1,2]oxaborole-3,1′-cyclobutan]-6-yl)-1-(pyridin-2-yl)-1H-1,2,3-triazole-4-carboxamide], the concentration for half-maximal inhibition (IC50) lay within 1.1 to 9.9 µM.
For the compound `O=C(Nc1ccc2c(c1)B(O)OC2)c1nnn(-c2ccccc2F)c1C(F)(F)F` [Example 67, 1-(2-Fluorophenyl)-N-(1-hydroxy-1,3-dihydrobenzo[c][1,2]oxaborol-6-yl)-5-(trifluoromethyl)-1H-1,2,3-triazole-4-carboxamide], the IC50 was at most 1 µM.
